This passage reports cross reactivities results from EP1840134B1 (NOVO NORDISK A/S, priority 1998, dated 2016).

In the assay the test system is monoclonal antibody specific for the N-terminal region of GLP-1 (7-37). Put plainly: Cross reactivity of the RIA antibody used to determine plasma concentrations. It is filed as binding. Particulars: RIA at 4°C. Here is the method: The entire procedure was carried out at 4°C.
The assay was carried out as follows: 100 µl plasma was mixed with 271 µl 96% ethanol, mixed using a vortex mixer and centrifuged at 2600*g for 30 min. The supernatant was decanted into Minisorp tubes and evaporated completely (Savant Speedvac AS290). The evaporation residue was reconstituted in the assay buffer consisting of 80 mM NaH2PO4/Na2HPO4, 0.1 % HSA (Orpha 20/21, Behring), 10 mM EDTA, 0.6 mM thiomersal (Sigma), pH 7.5. Samples were reconstituted in volumes suitable for their expected concentrations, and were allowed to reconstitute for 30 min. To 300 µl sample, 100 µl antibody solution in dilution buffer containing 40 mM NaH2PO4/Na2HPO4, 0.1 % HSA, 0.6 mM thiomersal, pH 7.5, was added. A non-specific sample was prepared by mixing 300 µl buffer with 100 µl dilution buffer. Individual standards were prepared from freeze dried stocks, dissolved in 300 µl assay buffer. All samples were pre-incubated in Minisorp tubes with antibody as described above for 72 h. […] Immediately after the centrifugation, the supernatant was decanted and counted in a γ-counter. The concentration in the samples was calculated from individual standard curves. Plasma concentrations were found, calculated as % of the maximum concentration for the individual compounds (n=2).

Turning to “GLP-1 (1-37) (HDEFERHAEGTFTSDVSSYLEGQAAKEFIAWLVKGRG; Glucagon-like peptide 1; UniProt P01275 92-128, looked up, fragment)”, the cross reactivities entry was “less than 1%”.
